# From patent US6384080B1, “Anthranilic acid derivatives as inhibitors of the cGMP-phosphodiesterase” (Fujisawa Pharmaceutical Co., Ltd., priority 1998, dated 2002)
# Where a name gives a salt, the structure may show the parent alone. Read-outs that look alike come from different tables or passages of the source.
# Target: T1, human platelet PDE-V (Homo sapiens, UniProt O76074)
# T1 construct: Human platelet cGMP-PDE was separated from other isozymes in human platelets; from tissue; host or cells: human platelets
# Assay: cGMP-Phosphodiesterase (PDE) assay, enzymatic inhibitory test
# Format: biochemical
# Experimental: cGMP-Phosphodiesterase (PDE) Assay
# Human platelet cGMP-PDE was separated from other isozymes in human platelets by a modification of the method of Thompson et. al. (see Cyclic Nucleotide Phosphodiesterase (PDE), in Methods of Enzymatic analysis, Vol 4, p127-234, 1984). In enzyme inhibition assays, the test compounds were dissolved in DMSO and then diluted with assay buffer (50 mM Tris-HCl, 0.077 mg/ml dithiothreitol and 10 mg/ml snake venom, 1 mM EGTA, pH 8.0), at final concentrations ranging from 10^−10 to 10^−6 M. Assays were performed at 0.1 μM substrate ([^3H]-cGMP) concentration, at 30° C. for 10 minutes using enzyme dilutions which gave 10-20% hydrolysis of substrate. Each assay was initiated by addition of substrate and terminated by addition of anion exchange resin (Dowex® 1-X8, 250 mg/mg) followed by centrifugation for 10 minutes (3000 rpm, at 4° C.). Radioactivity of supernatant (^3H-GMP) was assayed by liquid scintillation counting.
# [1] = human platelet PDE-V, 0.1 μM [3H]-cGMP substrate, 30° C., 10 minutes, read-out: Inhibitory activity IC50
SMILES,IC50 [1],IC50
"COC(=O)C1CCC(Nc2ccc([N+](=O)[O-])cc2C(=O)NCc2ccc3c(c2)OCO3)CC1 (stereo not shown) [2-[4-(Methoxycarbonyl)cyclohexylamino]-5-nitro-N-(1,3-benzodioxol-5-ylmethyl)benzamide]",< 10 nM,–
"COc1ccc(CNC(=O)c2cc([N+](=O)[O-])ccc2NC2COC(C)(C)OC2)cc1OC [N-(3,4-dimethoxybenzyl)-2-(2,2-dimethyl-1,3-dioxan-5-ylamino)-5-nitrobenzamide]",< 10 nM,–
Nc1ccc(CNC(=O)c2cc([N+](=O)[O-])ccc2NC2CCCC2)cc1 [N-(4-Aminobenzyl)-2-(cyclopentylamino)-5-nitrobenzamide],< 10 nM,–
Cc1ccc(CNC(=O)c2cc([N+](=O)[O-])ccc2NC2CCCC2)cc1 [2-(Cyclopentylamino)-N-(4-methylbenzyl)-5-nitrobenzamide],< 10 nM,–
"O=C(NCc1ccc2c(c1)OCCO2)c1cc([N+](=O)[O-])ccc1N[C@H]1CC[C@H](O)CC1 [N-(3,4-Ethylenedioxybenzyl)-2-(trans-4-hydroxycyclohexylamino)-5-nitrobenzamide]",< 10 nM,–
"CC(C)[C@@H](CO)Nc1ccc([N+](=O)[O-])cc1C(=O)NCc1ccc2c(c1)OCO2 [(S)-2-[1-(Hydroxymethyl)-2-methylpropylamino]-5-nitro-N-(1,3-benzodioxol-5-ylmethyl)benzamide]",< 10 nM,–
"O=C(NCc1ccc2c(c1)OCO2)c1cc([N+](=O)[O-])ccc1NC1CCN(Cc2ccccc2)CC1 [2-(1-Benzylpiperidin-4-ylamino)-5-nitro-N-(1,3-benzodioxol-5-ylmethyl)benzamide]",< 10 nM,–
O=C(NCc1ccccc1Cl)c1cc([N+](=O)[O-])ccc1NC1CCCC1 [N-(2-Chlorobenzyl)-2-cyclopentylamino-5-nitrobenzamide],< 10 nM,–
"O=C(NCc1ccc(F)c(F)c1)c1cc([N+](=O)[O-])ccc1NC1CCCC1 [2-(Cyclopentylamino)-N-(3,4-difluorobenzyl)-5-nitrobenzamide]",< 10 nM,–
"O=C(NCc1ccc2c(c1)OCO2)c1cc([N+](=O)[O-])ccc1NC(CCl)CCl [2-[2-Chloro-1-(chloromethyl)ethylamino]-5-nitro-N-(1,3-benzodioxol-5-ylmethyl)benzamide]",–,< 10 nM
"C[C@@H](O)[C@@H](CO)Nc1ccc([N+](=O)[O-])cc1C(=O)NCc1ccc2c(c1)OCO2 [2-[(1R, 2R)-2-Hydroxy-1-(hydroxymethyl)propylamino]-5-nitro-N-(1,3-benzodioxol-5-ylmethyl)benzamide]",< 10 nM,–
O=C(OC1CCC(Nc2ccc([N+](=O)[O-])cc2C(=O)NCc2ccccc2)C1)c1ccccc1 (stereo not shown) [2-[3-(Benzoyloxy)cyclopentylamino]-N-benzyl-5-nitrobenzamide],< 10 nM,–
COc1ccc(Cl)c(CNC(=O)c2cc([N+](=O)[O-])ccc2N[C@H]2CC[C@@H](O)CC2)c1 [N-(2-Chloro-5-methoxybenzyl)-2-(cis-4-hydroxycyclohexylamino)-5-nitrobenzamide],< 10 nM,–
O=C(NCc1nc2ccccc2[nH]1)c1cc([N+](=O)[O-])ccc1NC1CCCC1 [N-[(2-Benzimidazolyl)methyl]-2-(cyclopentylamino)-5-nitrobenzamide],< 10 nM,–
O=C(NCc1cc2ccccc2s1)c1cc([N+](=O)[O-])ccc1N[C@H]1CC[C@@H](O)CC1 [N-(Benzo[b]thiophen-2-ylmethyl)-2-(cis-4-hydroxycyclohexylamino)-5-nitrobenzamide],< 10 nM,–
"COc1ccc(CNC(=O)c2cc([N+](=O)[O-])ccc2N[C@H]2CC[C@H](NC(=NC(=O)OC(C)(C)C)NC(=O)OC(C)(C)C)CC2)cc1OC [2-{trans-4-[2,3-bis(tert-butoxycarbonyl)guanidino]cyclohexylamino}-N-(3,4-dimethoxybenzyl)-5-nitrobenzamide]",< 10 nM,–
"O=C(NCc1ccc2c(c1)OCO2)c1cc([N+](=O)[O-])ccc1NC1CCS(=O)(=O)CC1 [2-(1,1-dioxotetrahydro-2H-thiopyran-4-ylamino)-5-nitro-N-(1,3-benzodioxol-5-ylmethyl)benzamide]",< 10 nM,–
"O=C(NCc1ccc(Cl)cc1Cl)c1cc([N+](=O)[O-])ccc1NC1CCCC1 [2-(Cyclopentylamino)-N-(2,4-dichlorobenzyl)-5-nitrobenzamide]",< 10 nM,–
COc1ccc(CNC(=O)c2cc(Br)ccc2NC2CCCC2)cc1Cl [5-bromo-N-(3-chloro-4-methoxybenzyl)-2-(cycloperitylamino)benzamide hydrochloride],< 10 nM,–
"COc1ccc(CNC(=O)c2cc([N+](=O)[O-])ccc2N[C@H]2CC[C@@H](NC=O)CC2)cc1OC [2-(cis-4-Formamidocyclohexylamino)-N-(3,4-dimethoxybenzyl)-5-nitrobenzamide]",< 10 nM,–

SMILES,IC50 [1],IC50
CCCCCCNC(=O)c1cc([N+](=O)[O-])ccc1NC1CCCC1 [2-(Cyclopentylamino)-N-hexyl-5-nitrobenzamide],< 10 nM,–
"COc1c(Cl)cc(CNC(=O)c2cc([N+](=O)[O-])ccc2N[C@H]2CC[C@H](O)CC2)cc1Cl [N-(3,5-Dichloro-4-methoxybenzyl)-2-(trans-4-hydroxycyclohexylamino)-5-nitrobenzamide]",< 10 nM,–
"CC[C@@H](CCl)Nc1ccc([N+](=O)[O-])cc1C(=O)NCc1ccc2c(c1)OCO2 [(S)-2-[1-(chloromethyl)propylamino]-5-nitro-N-(1,3-benzodioxol-5-ylmethyl)benzamide]",< 10 nM,–
O=C(NCc1ccccc1)c1cc([N+](=O)[O-])ccc1N[C@@H]1CCC[C@H]1O (relative stereo) [N-Benzyl-2-(trans-2-hydroxycyclopentylamino)-5-nitrobenzamide],< 10 nM,–
"COC(=O)[C@@H](C)Nc1ccc([N+](=O)[O-])cc1C(=O)NCc1ccc2c(c1)OCO2 [(R)-2-[1-(Methoxycarbonyl)ethylamino]-5-nitro-N-(1,3-benzodioxol-5-ylmethyl)benzamide]",< 10 nM,–
"O=C(NCc1ccc2c(c1)OCO2)c1cc([N+](=O)[O-])ccc1NC1(CO)CCCC1 [2-[1-(Hydroxymethyl)cyclopentylamino]-5-nitro-N-(1,3-benzodioxol-5-ylmethyl)benzamide]",< 10 nM,–
O=C(NCc1ccccc1)c1cc([N+](=O)[O-])ccc1NC1CC1 [N-Benzyl-2-(cyclopropylamino)-5-nitrobenzamide],< 10 nM,–
COc1ccc(CNC(=O)c2cc([N+](=O)[O-])ccc2NC2CCCC2)c(Cl)c1 [N-(2-Chloro-4-methoxybenzyl)-2-(cyclopentyrlamino)-5-nitrobenzamide],< 10 nM,–
O=C(NCC1CCCCC1)c1cc([N+](=O)[O-])ccc1N[C@H]1CC[C@@H](O)CC1 [N-cyclohexylmethyl-2-(cis-4-hydroxycyclohexylamino)-5-nitrobenzamide],< 10 nM,–
O=C(NCc1ccccc1)c1cc([N+](=O)[O-])ccc1NC1CCC1 [N-Benzyl-2-(cyclobutylamino)-5-nitrobenzamide],< 10 nM,–
COc1cc(CNC(=O)c2cc([N+](=O)[O-])ccc2NC(CO)CO)ccc1OCC1CCC1 [N-(4-Cyclobutylmethoxy-3-methoxybenzyl)-2-[2-hydroxy-1-(hydroxymethyl)ethylamino]-5-nitrobenzamide],< 10 nM,–
"CC(C)(C)Nc1ccc([N+](=O)[O-])cc1C(=O)NCc1ccc2c(c1)OCO2 [2-(tert-Butylamino)-5-nitro-N-(1,3-benzodioxol-5-ylmethyl)benzamide]",< 10 nM,–
COc1ccc(CNC(=O)c2cc(C(F)(F)F)ccc2NC(CO)CO)cc1Cl [N-(3-Chloro-4-methoxybenzyl)-2-[2-hydroxy-1-(hydroxymethyl)ethylamino]-5-(trifluoromethyl)benzamide],< 10 nM,–
"COc1ccc(CNC(=O)c2cc([N+](=O)[O-])ccc2NC2COC(=O)OC2)cc1OC [N-(3,4-dimethoxybenzyl)-5-nitro-2-(2-oxo-1,3-dioxan-5-ylamino)benzamide]",< 10 nM,–
"O=C(NCc1ccc2c(c1)OCO2)c1cc([N+](=O)[O-])ccc1NC1CCSCC1 [5-Nitro-N-(1,3-benzodioxol-5-ylmethyl)-2-(tetrahydro-2H-thiopyran-4-ylamino)benzamide]",< 10 nM,–
"O=C(NCc1ccc2c(c1)OCO2)c1cc([N+](=O)[O-])ccc1N[C@@H]1CCOC1 [(R)-5-Nitro-2-(tetrahydro-3-furanylamino)-N-(1,3-benzodioxol-5-ylmethyl)benzamide]",< 10 nM,–
"O=C(NCc1ccc2c(c1)OCO2)c1cc([N+](=O)[O-])ccc1NC1CCC(C(=O)O)CC1 (stereo not shown) [2-(4-carboxycyclohexylamino)-5-nitro-N-(1,3-benzodioxol-5-ylmethyl)benzamide]",< 10 nM,–
O=C(NCc1ccc(Cl)cc1)c1cc([N+](=O)[O-])ccc1NC1CCCC1 [N-(4-Chlorobenzyl)-2-(cyclopentylamino)-5-nitrobenzamide],< 10 nM,–
"COc1ccc(CNC(=O)c2cc([N+](=O)[O-])ccc2NC2CCN(C(=NC(=O)OC(C)(C)C)NC(=O)OC(C)(C)C)CC2)cc1OC [2-[1-[1,3-Bis(tert-butoxycarbonyl)amidino]piperidin-4-ylamino]-N-(3,4-dimethoxybenzyl)-5-nitrobenzamide]",< 10 nM,–
O=C(NCc1ccc(C(F)(F)F)cc1)c1cc([N+](=O)[O-])ccc1NC1CCCC1 [2-(Cyclopentylamino)-5-nitro-N-[4-(trifluoromethyl)benzyl]benzamide],< 10 nM,–
